± gives the uncertainty stated by the source.
Assay: xn = mol fraction of the nth substance listed

O=C1CCCCCN1 + CCO + CCCC[N+](CCCC)(CCCC)CCCC.[Cl-]
electrical conductivity [S/m], 101 kPa
Conditions | x1 = 0.0058, x3 = 0.0058 | x1 = 0.00584, x3 = 0.0058 | x1 = 0.00587, x3 = 0.00587 | x1 = 0.0059, x3 = 0.0059 | x2 = 0.555, x1 = 0.2225 | x2 = 0.6648, x1 = 0.1676 | x2 = 0.7728, x1 = 0.1136 | x2 = 0.8892, x1 = 0.0554
295.65 K | – | – | – | – | 0.218 ± 0.0022 | 0.2632 ± 0.0026 | 0.3032 ± 0.003 | –
298.15 K | – | – | – | – | 0.232 ± 0.0023 | 0.268 ± 0.0027 | 0.31 ± 0.0031 | –
300.65 K | – | 0.0588 ± 0.001 | – | – | 0.241 ± 0.0024 | 0.269 ± 0.0027 | 0.3143 ± 0.0031 | –
303.15 K | – | – | – | 0.0587 ± 0.001 | 0.256 ± 0.0026 | 0.27 ± 0.0027 | 0.317 ± 0.0032 | 0.25 ± 0.0026
305.65 K | – | 0.0586 ± 0.001 | – | – | 0.2704 ± 0.0027 | 0.2713 ± 0.0027 | 0.317 ± 0.0032 | 0.25 ± 0.0026
308.15 K | – | 0.0585 ± 0.001 | – | – | 0.2842 ± 0.0028 | 0.2737 ± 0.0027 | 0.319 ± 0.0032 | 0.249 ± 0.0026
310.65 K | – | – | – | 0.0585 ± 0.001 | 0.2936 ± 0.0029 | 0.276 ± 0.0028 | 0.3224 ± 0.0032 | 0.248 ± 0.0026
313.15 K | – | 0.0585 ± 0.001 | – | – | 0.3023 ± 0.003 | 0.278 ± 0.0028 | 0.325 ± 0.0033 | 0.248 ± 0.0026
315.65 K | – | – | – | 0.0587 ± 0.001 | 0.308 ± 0.0031 | 0.28 ± 0.0028 | 0.328 ± 0.0033 | 0.248 ± 0.0026
318.15 K | – | – | – | 0.0587 ± 0.001 | 0.3136 ± 0.0031 | 0.2821 ± 0.0028 | 0.329 ± 0.0033 | 0.248 ± 0.0026
320.65 K | – | 0.0587 ± 0.001 | – | – | 0.3131 ± 0.0031 | 0.2841 ± 0.0028 | 0.3303 ± 0.0033 | 0.246 ± 0.0026
323.15 K | – | 0.0586 ± 0.001 | – | – | 0.315 ± 0.0032 | 0.287 ± 0.0029 | 0.329 ± 0.0033 | 0.245 ± 0.0026
325.65 K | 0.0584 ± 0.001 | – | – | – | 0.3129 ± 0.0031 | 0.288 ± 0.0029 | 0.327 ± 0.0033 | 0.246 ± 0.0026
328.15 K | 0.0576 ± 0.001 | – | – | – | – | 0.289 ± 0.0029 | – | 0.246 ± 0.0026
330.65 K | – | 0.0569 ± 0.0009 | – | – | – | 0.288 ± 0.0029 | – | 0.245 ± 0.0026
333.15 K | – | – | 0.0562 ± 0.0009 | – | – | 0.288 ± 0.0029 | – | 0.245 ± 0.0026

CC1COC(=O)O1 (stereo not drawn) + CC[n+]1ccn(C)c1.O=S(=O)([O-])C(F)(F)F
101 kPa, x2 = 0
Conditions | viscosity [mPa·s]
293.15 K | 2.94 ± 0.18
343.15 K | 1.251 ± 0.076

CC(C)[C@H]1CC[C@H](C)C[C@@H]1O + CCCCCCCC[N+](CCCCCCCC)(CCCCCCCC)CCCCCCCC.[Br-] + [Cl-].[Cl-].[Co+2]
296.1 K, 101.3 kPa
Conditions | viscosity [mPa·s]
x2 = 0.2857, x3 = 0.1429 | 11900 ± 4200
x2 = 0.4, x3 = 0.2 | 22000 ± 10000
x2 = 0.4286, x3 = 0.1429 | 17800 ± 7500

CC(=O)[O-].CCCC[n+]1ccn(C)c1 + NCCCNCCCN + O
viscosity [mPa·s], 101 kPa
Conditions | 298.15 K | 303.15 K | 308.15 K | 313.15 K | 318.15 K | 323.15 K | 328.15 K | 333.15 K
x1 = 0.03479, x2 = 0 | 2.23 ± 0.14 | 2.18 ± 0.14 | 2.16 ± 0.14 | 2.13 ± 0.14 | 1.74 ± 0.14 | 1.58 ± 0.14 | 1.51 ± 0.14 | 1.24 ± 0.14
x1 = 0.03897, x2 = 0 | 2.35 ± 0.14 | 2.29 ± 0.14 | 2.25 ± 0.14 | 2.22 ± 0.14 | 2.11 ± 0.14 | 2.07 ± 0.14 | 1.91 ± 0.14 | 1.86 ± 0.14
x1 = 0.04311, x2 = 0 | 2.66 ± 0.14 | 2.63 ± 0.14 | 2.56 ± 0.14 | 2.49 ± 0.14 | 2.29 ± 0.14 | 2.26 ± 0.14 | 2.02 ± 0.14 | 1.97 ± 0.14

O + CCCCCCCCCCCCCC[n+]1ccccc1.O=C([O-])C(O)c1ccccc1 + C[C@H](N)C(=O)O
101 kPa, x2 = 0, x3 = 0
Conditions | electrical conductivity [S/m]
293.15 K | 0.00012
298.15 K | 0.00015
303.15 K | 0.00016
308.15 K | 0.00017
313.15 K | 0.00019

Source: the CheMixHub ionic liquid set
